According to patent US5877185A, “Synergistic compositions useful as anti-tumor agents” (priority 1995, dated 1999):
Where two headings read alike, the source gives them in different places.

How the values were obtained:
[1] = test system: E ras cells; assay: cytostatic and cytocidal activity; assay type: cell-based, bovine; settings: for cytostatic and cytocidal effects: at the concentrations given above; for IC50: Bos taurus, average of three trials
Description: pADPRT ligands that oxidize CCHC zinc fingers are not unique inhibitors of pADPRT. […] Hakam et al., FEBS Lett. 193:1-4 (1991). These ligands bind non-covalently to the nicotinamide site and internal DNA-seeking domains of pADPRT. Bauer et al., manuscript in preparation (1994). In contrast, CCHC-oxidizing ligands also bind non-covalently to the nicotinamide site, but initially attack the F1 zinc finger oxidatively. Id. […] Id. […] U.S. Ser. No. 08/076,313 filed Jun. 11, 1993.
Each value is the average of three trials. Each trial deviated from the average by no more than twenty percent. […] Another isomer of the iodo-nitro-benzamide series, 2-iodo-4-nitrobenzamide had no effect at the concentrations given above.

[2] = test system: MT-2 cells; assay: effectiveness on human T-lymphoblastoid leukemia cells, MT-2; assay type: cell-based; settings: for IC50: Homo sapiens, MT2, concentration decreasing cell viability to 50% of control, 48 h incubation, read-out: I50; for LD100: zero viability after 48 hours of incubation
Experimental: (§1) IV. Effectiveness of 4-(halogen)-3-nitro-benzamide compounds as tested with human T-lymphoblastoid leukemia cell lines in culture.
(§2) Cells (MT-2 cells, or, in case of 3-fluoro-4-nitro-benzamide, CEM-4 cells) were seeded at a density of 0.1×10^5 /ml; the drugs were added at the time of seeding. The cultures were incubated at 37° C. in a 5% CO2 atmosphere and the cells numbers were monitored by hemacytometer counting in 24 hr intervals.

[3] = test system: CEM-4 cells; assay: effectiveness on human T-lymphoblastoid leukemia cells, CEM-4; assay type: cell-based
Experimental: as §1, §2

[4] = test system: L-1210 Murine Leukemia Cells; assay: effect of nitroso- and nitro-compounds in L-1210 murine leukemia cells (suspension); assay type: cell-based; settings: drug exposure 18 hours
Experimental: II. I50 and LD100 Values for Nitroso- and Nitro-Compounds in (A) Mammary Cancer Cells (monolayer cultures) and in (B) L-1210 Murine Leukemia Cells (suspension culture).
Cells were seeded at 5×10^4 to 2×10^5 /ml; drugs were added at the time of seeding; drug exposure was for 18 hours.

[5] = test system: Molt-4 cells; assay: time course of cell killing alone and with BSO, Molt-4; assay type: cell-based; settings: Molt-4, 2-3 day period; 4 μM drug, 1 mM BSO
Experimental: (§3) Molt 4-cells were seeded at a density of 0.05×10^6 cell/ml in the recommended growth medium in the absence or the presence of drugs as indicated. Cells were incubated at 37° C. in a 5% CO2 atmosphere and proliferation was monitored in 14 hr. by cell counting in a hemacytometer. .smallcircle., untreated control; .circle-solid., treated with 4 μM 4-iodo-3-nitrobenzoic acid; .gradient., treated with 1 mM BSO; .tangle-soliddn., treated with 4 μM-iodo-3-nitrobenzoic acid and 1 mM BSO; .quadrature., treated with 4 μM 4-INO2 BA; .box-solid., treated with 1 mM BSO; .gradient., treated with 4 μM INO2 BA and 1 mM BSO. L-1210 cells were seeded at a density of 0.05×10^6 cells/ml either from untreated stock suspensions or from 24-hr. pretreated (0.2×10^6 cells/ml) suspensions. .smallcircle., untreated control; .circle-solid., treated with […] NOBA; .gradient., treated with 1 mM BSO; .tangle-soliddn., 24-hr pretreatment with 1 mM BSO then treated with 4 μM NOBA.
(§4) A time course of the cell killings by 4-iodo-3-nitrobenzoic acid, INO2 BA and NOBA, each alone and in combination with BSO was obtained. Molt-4 cells were seeded at a density of 0.05×10^6 cells/ml in the recommended growth medium in the absence or presence of drugs as indicated in FIG. 3. Drugs were added to the wells immediately after seeding from 10-40 mM stock solution in DMSO. BSO was added from a 100 mM aqueous stock solution. Cells were incubated at 37° C. in a 5% CO2 atmosphere and proliferation was monitored in 14 hours by cell counting in a hemacytometer.

[6] = test system: L-1210 cells; assay: time course of cell killing alone and with BSO, L-1210; assay type: cell-based, murine; settings: L-1210, 2-3 day period; 1 mM BSO
Experimental: as §3, §4

[7] = test system: AA-2 leukemia cells; assay: cytocidal effect in combination with ascorbate
Experimental: Because of the in vitro reactivity of the nitroso group of INOBA with both ascorbate and GSH, the apoptosis-inducing effect of NOBA with the action of the prodrug INO2 BA in the presence of ascorbate, added simultaneously with both drugs was compared.
AA-2 cells were seeded at a density of 0.2×10^6 cells/ml. Drugs and/or sodium ascorbate were added at the time of seeding, and cells were counted by hemacytometer after incubation (37° C., 5% CO^2) for 18 hr (Day 1) and for 42 hr (Day 2). Viability was evaluated by Trypan Blue exclusion.

[8] = test system: HIV-1 (LAV strain); assay: in vitro anti-retroviral testing (HIV-1 inactivation) in human peripheral lymphocytes (PBL); assay type: cell-based
Experimental: Both 6-NOBP and NOBA were tested on viral growth of HIV-1 (LAV strain) in phytohemagglutinin-stimulated human peripheral lymphocytes (PBL). An HIV-1 stock having an infectivity titer of 100,000 TCID50 was incubated for 30 min. at 22° C. with either of the drugs. Control HIV samples, containing no drugs, were incubated in the same manner. […] At the end of this incubation cultures were assayed for productive infection by an immunoassay for HIV-1 antigens and by reverse transcriptase as described in McDougal et al., J. Immunol. Methods 76:171-183 (1985). Virus titers were expressed as percentile values (percent infected cultures) compared to the controls, containing HIV dilutions which were not preincubated with the C-nitroso drugs. In a separate series of experiments, HIV-1 dilutions and C-nitroso drugs (see upper abscissa) were not preincubated but were added simultaneously to lymphocytes in exactly the same concentrations as described previously (i.e., following preincubation) and viral growth monitored 9 days later.

[9] = solubility and stability of nitro versus nitroso compound; assay type: physicochemical
[10] = test system: leukemic and other malignant human cells; settings: cited from earlier work
[11] = test system: normal bone marrow progenitor cells; settings: tumoricidal concentrations; cited from earlier work
[12] = test system: neutrophil granulocytes; settings: tumoricidal concentrations; cited from earlier work
[13] = test system: human immunodeficiency virus HIV-1; settings: human lymphocytes; cited from earlier work
[14] = test system: HIV-1 NC zinc fingers; settings: isolated HIV-1 NC zinc fingers and intact HIV-1 virions; cited from earlier work

NC(=O)c1ccc([N+](=O)[O-])cc1I [2-iodo-4-nitrobenzamide]
cytostatic and cytocidal effects [1]: no effect

NC(=O)c1cc([N+](=O)[O-])ccc1I [2-iodo-5-nitrobenzamide]
IC50 ([1]; E ras cells, read-out: Cytostatic Effect I50): 12 µM | IC50 ([1]; with 0.8 mM BSO, read-out: Cytocidal Effect I50): 2 µM | cytostatic and cytocidal effects [1]: more effective of the two isomers

NC(=O)c1ccc(Br)c([N+](=O)[O-])c1 [4-bromo-3-nitro-benzamide]
IC50 [2]: 120 µM | LD100 [2]: 290

NC(=O)c1ccc(Cl)c([N+](=O)[O-])c1 [4-chloro-3-nitro-benzamide]
IC50 [2]: 130 µM | LD100 [2]: 300

NC(=O)c1ccc(F)c([N+](=O)[O-])c1 [4-fluoro-3-nitro-benzamide]
IC50 ([3]; Homo sapiens, concentration decreasing cell viability to 50% of control, read-out: I50): 120 µM | LD100 ([3]; zero viability after 48 hours of incubation): 280

O=C(O)c1ccc(I)c([N+](=O)[O-])c1 [4-iodo-3-nitrobenzoic acid]
I50 [4]: 16 nanomoles/10^5 cells | LD100 [4]: 32 nanomoles/10^5 cells | effect on cell proliferation [5]: no significant effect | effect on cell proliferation [6]: no significant effect

O=C1O[C@H]([C@@H](O)CO)C([O-])=C1O.[Na+] [Ascorbate, sodium ascorbate, reference compound]
effect on AA-2 leukemia cells by itself ([7]; 160 μM): no effect | cell number Day 1 ([7]; ascorbate 160 μM, 18 hr): 480000 mL⁻¹ | cell number Day 2 ([7]; ascorbate 160 μM, 42 hr): 900000 mL⁻¹

O=c1ccc2cc([N+](=O)[O-])ccc2o1 [NO2 BP, 6-Nitro-1,2-benzopyrone]
I50 [4]: 35 nanomoles/10^5 cells | LD100 [4]: 80 nanomoles/10^5 cells | inhibition of HIV-1 activity in human lymphocytes [8]: 52% | TCID50 (calculated infectious titer after treatment) ([8]; 500 μM): 85,114 TCID50 | inhibition at 500 µM ([8]; Human immunodeficiency virus 1, Lymphocyte): 52.1% | log reduction at 500 µM ([8]; Human immunodeficiency virus 1, Lymphocyte, 0.5 h, read-out: Decrease): 0.32 | stability and solubility [9]: more stable and soluble than the active nitroso compound

O=Nc1ccc2oc(=O)ccc2c1 [NOBP, 6-nitroso-1,2-benzopyrone]
TCID50 (calculated infectious titer after treatment) ([8]; 100 μM): 102 TCID50 | log reduction at 100 µM ([8]; Human immunodeficiency virus 1, Lymphocyte, 0.5 h, 100 μM, of TCID50, read-out: Decrease): 3.24 | inhibition at 100 µM ([8]; Human immunodeficiency virus 1, Lymphocyte, 100 μM): 99.9% | stability and solubility [9]: poorly soluble | suppression of proliferation [10]: completely suppressed | effect on normal bone marrow progenitor cells [11]: relatively harmless | effect on superoxide formation by neutrophil granulocytes [12]: relatively harmless | inhibition of HIV-1 infection [13]: inhibit infection | zinc ejection [14]: eject zinc
